Where two headings read alike, the source gives them in different places.
Columns and labels:
[1] = test system: tumor pH; set-up: method as in PMID 19876915; details: in vivo experiments; tumor pH shifts toward neutrality after treatment; cited from earlier work
[2] = test system: early stage colorectal cancer; set-up: method as in PMID 26803708; details: cited from earlier work
[3] = set-up: species or system patients; details: in vivo
Protocol: This is a randomized phase II study designed to detect the advantage of adding rabeprazole to mCAP as palliative treatment for patients with metastatic GI cancer, as previously described. Eligible patients were randomly assigned 1:1 to capecitabine, 1500 mg/daily, continuously with or without rabeprazole 1.5 mg/kg bid, three days a week. The randomization was computer generated by a statistician not involved in data collection, who was called by phone at the time of assignment. The protocol was not interrupted until progression of disease, unacceptable toxicity or death occurrence. This study was designed with the primary endpoint of 3-months progression-free survival (PFS) rate. […] Safety was evaluated by considering overall incidence and severity of adverse events (AEs) as well as the seriousness and drug-relatedness of each event (CTCAE v.4.03). […] Plasma concentrations of capecitabine and its metabolites, 5′-deoxy-5′-fluorouridine (5′-DFUR) and 5- fluorouracil (5-FU), were evaluated in order to assess the potential interaction between capecitabine and rabeprazole. […] Plasma samples, calibration standard samples and quality-control (QC) samples were analyzed using a high-performance liquid chromatography (HPLC) tandem mass spectrometry (LC/MS-MS) analytical method. […]

[4] = test system: patients with metastatic GI cancer; experiment: Randomized phase II trial: safety, adverse events (CTCAE v.4.03); details: in vivo
Protocol: (§1) This is a randomized phase II study designed to detect the advantage of adding rabeprazole to mCAP as palliative treatment for patients with metastatic GI cancer, as previously described. Eligible patients were randomly assigned 1:1 to capecitabine, 1500 mg/daily, continuously with or without rabeprazole 1.5 mg/kg bid, three days a week. The randomization was computer generated by a statistician not involved in data collection, who was called by phone at the time of assignment. The protocol was not interrupted until progression of disease, unacceptable toxicity or death occurrence. This study was designed with the primary endpoint of 3-months progression-free survival (PFS) rate. PFS was defined as the length of time from the first dose of study drug to the date of the first documented disease progression according to the Response Evaluation Criteria in Solid Tumors (RECIST), version 1.1, or death for any reason, with censoring at the date of the last contact for alive patients. Secondary endpoints included the evaluation of clinical benefit (CB), which reflects the proportion of patients with complete response (CR), partial response (PR) and stable disease (SD) and overall survival (OS). The crossover between treatment groups was not allowed before the final analysis of the primary end point. Safety was evaluated by considering overall incidence and severity of adverse events (AEs) as well as the seriousness and drug-relatedness of each event (CTCAE v.4.03). AEs with an onset during treatment, or within 28 days after the last dose of the study drug, were considered as having occurred during treatment. We grouped anemia, neutropenia, and thrombocytopenia in hematological toxicity; diarrhea, nausea, and vomiting in gastrointestinal toxicity. In the two protocol arms, plasma concentrations of capecitabine and its metabolites were determined at 2 h from the assumption of two tablet of capecitabine (1000 mg), corresponding to the tmax of the drug. Plasma concentrations of capecitabine and its metabolites, 5′-deoxy-5′-fluorouridine (5′-DFUR) and 5- fluorouracil (5-FU), were evaluated in order to assess the potential interaction between capecitabine and rabeprazole. Blood samples (7 mL) were collected in vacutainers containing ethylenediaminetetraacetic acid (EDTA) as anticoagulant, then centrifuged and the plasma samples were stored at −20 °C until analysis. Plasma samples were collected at the start of the study, after 4 and 8 weeks of treatment. Plasma samples, calibration standard samples and quality-control (QC) samples were analyzed using a high-performance liquid chromatography (HPLC) tandem mass spectrometry (LC/MS-MS) analytical method. Plasma concentrations were reported in µg/mL (mean values and standard deviation (SD)).
The study was designed to have 90% power to detect a hazard ratio for the 3-months PFS of 0.60 (a 40% reduction in risk) in the mCAP-rabeprazole group as compared with the mCAP group, with a one-sided type I error rate of 0.05. Given the treatment assignment ratio of 1:1, we calculated that 66 patients had to be enrolled in the study, and at least 60 events (progression disease) would have been required for the primary analysis. For PFS and OS, the stratified log-rank test was used independently at the 2-sided, 0.05 level of significance, and Kaplan–Meier estimates performed for the graphic representation of both findings. An exact logistic regression model was used to test for a difference in CB between treatments, with the model adjusted by the same factors used to stratify the primary analysis of PFS. Adverse events and laboratory abnormalities were summarized for all patients who received at least one dose of study drug. The χ^2–test and t-test for unpaired data were applied to compare frequencies and means, respectively. SPSS statistical software, Version 24 (SPSS Inc. Chicago, IL, USA) was used.

[5] = test system: metastatic gastrointestinal (GI) cancer; experiment: Randomized phase II trial: efficacy (3-months PFS, PFS, clinical benefit, OS; RECIST 1.1); format: in vivo, patients
From the text: In addition, patients had to be 18 years of age or older, to have adequate bone-marrow, liver, and renal function and to have an Eastern Cooperative Oncology Group (ECOG) performance status ≤2. Meanwhile, the presence of one of the following criteria excluded patients’ participation to the study protocol: GI tumors that can be treated with standard treatments, cardiovascular or CNS disease, previously untreated CNS metastases, pregnant or breast-feeding patients, organ dysfunctions that usually hinder the use of cytotoxic drugs, and/or substance abuse and any other psychological condition that may interfere with the evaluation of study results. All patients were randomized and treated at the Oncology Unit of Sant’Andrea University Hospital, Rome. Every cancer patient is commonly managed at our Institution by a multidisciplinary team, who provides for the starting and the following clinical evaluations.
as §1, with “Plasma samples were collected at the start of the study, after 4 and 8 weeks of treatment.” left out, “Plasma concentrations were reported in µg/mL (mean values and standard deviation (SD)).” left out

Structure (SMILES): COc1ccc2nc([S@@+]([O-])Cc3ncc(C)c(OC)c3C)[nH]c2c1 [esomeprazole]
- time for tumor pH to return to acidity after treatment discontinuation [1]: ≤ 48 h

Structure (SMILES): CCCCCOC(=O)Nc1nc(=O)n([C@@H]2O[C@H](C)[C@@H](O)[C@H]2O)cc1F [mCAP, capecitabine]
- Five-year recurrence-free survival ([2]; adjuvant capecitabine with concurrent PPIs consumption): 74%
- Five-year recurrence-free survival ([2]; adjuvant capecitabine without concurrent PPIs consumption): 83%
- HR for five-year recurrence-free survival ([2]; with vs. without concurrent PPIs, p = 0.03): 1.89
- plasma values in the pre-dose analysis [3]: below zero
- Gastrointestinal G1, patients ([4]; human): 14%
- Gastrointestinal G2, patients ([4]; human): 9%
- Hand-foot syndrome G1, patients ([4]; human): 3%
- Hand-foot syndrome G2, patients ([4]; human): 11%
- Hematological toxicity G1, patients ([4]; human): 6%
- Hematological toxicity G2, patients ([4]; human): 6%
- Nausea ([4]; human): 1 n.
- Neutropenia ([4]; human): 0 n.
- adverse events of any grade, patients ([4]; human): 29%
- severe adverse events [4]: no severe adverse event
- median OS ([5]; Kaplan–Meier): 6.0 (95%CI 4.0–7.9) months
- median PFS ([5]; Kaplan–Meier): 3.0 months
- 3-year OS rate ([5]; human, in vivo): 12%
- patients who reported a clinical benefit (CB: CR+PR+SD) ([5]; human, in vivo): 31%
- patients who experienced a progression of the disease at the 3-months evaluation (primary end-point) ([5]; intention-to-treat, mCAP 1500 mg/daily with or without rabeprazole 1.5 mg/kg bid three days a week): 57%

Structure (SMILES): O=c1[nH]cc(F)c(=O)[nH]1 [5-FU, 5-fluorouracil]
- plasma values in the pre-dose analysis [3]: below zero

Reference: paper PMC7690608, “Combination Therapy of High-Dose Rabeprazole Plus Metronomic Capecitabine in Advanced Gastro-Intestinal Cancer: A Randomized Phase II Trial” (Cancers, 2020)
